Measured values: article PMC11685430 (Nature Communications, 2024)

Experiments:
[1] = system: adenosine receptor subtypes (A1R, A2AR, A2BR, A3R); format: in vivo, mouse; details: i.t. 10 nmol
A1R = experiment: Reversal of JH-ENT-01 analgesia by A1R antagonist in STZ-treated mice; format: in vivo, mouse; details: i.t. 10 nmol, 30 min prior to JH-ENT-01 10 nmol
[2] = system: spinal dorsal horn outer lamina II (IIo) neurons; experiment: Patch clamp recording of sEPSCs in spinal cord slices of naive mice; format: cell-based, mouse; details: DPCPX alone 1 μM
[3] = system: mice with STZ-induced diabetic neuropathy; experiment: Survival of STZ mice after repeated injections; format: in vivo, mouse
[4] = system: mice with STZ-induced diabetic neuropathy; experiment: STZ-induced diabetic neuropathy, mechanical pain; format: in vivo, mouse
[5] = system: mice, formalin-induced inflammatory pain; experiment: Formalin-induced acute inflammatory pain; format: in vivo, mouse; details: i.t., JH-ENT-01 1, 10, 100 nmol, dilazep 100 nmol
mice [6] = experiment: Rotarod test before and 60 min after i.t. delivery; format: in vivo, mouse; details: 60 min after i.t. 100 nmol
[7] = Plasma and tissue pharmacokinetics after subcutaneous administration; format: in vivo; details: male, CD-1, mouse, plasma, sc
mice [8] = experiment: Electrocardiogram; format: in vivo, mouse
G154S hENT1 = target: T1, G154S hENT1 (Homo sapiens, UniProt Q99808, G154S); experiment: [3H]-adenosine uptake in oocytes expressing G154S hENT1; format: cell-based; details: Fig 1g
T1 sequence (Q99808 1-456 G154S): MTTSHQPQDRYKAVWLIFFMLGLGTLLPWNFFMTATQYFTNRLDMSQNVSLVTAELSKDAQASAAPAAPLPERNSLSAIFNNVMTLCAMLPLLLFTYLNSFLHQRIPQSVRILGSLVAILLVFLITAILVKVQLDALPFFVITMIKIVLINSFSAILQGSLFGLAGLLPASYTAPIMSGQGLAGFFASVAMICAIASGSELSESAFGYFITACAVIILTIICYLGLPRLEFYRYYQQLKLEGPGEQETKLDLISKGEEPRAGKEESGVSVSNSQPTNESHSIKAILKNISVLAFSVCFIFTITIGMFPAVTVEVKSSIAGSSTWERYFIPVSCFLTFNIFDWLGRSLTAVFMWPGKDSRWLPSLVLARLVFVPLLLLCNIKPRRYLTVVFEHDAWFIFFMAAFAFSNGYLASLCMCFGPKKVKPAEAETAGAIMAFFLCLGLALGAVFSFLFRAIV

[9] = system: mice, CFA-induced inflammatory pain; experiment: CFA-induced persistent inflammatory pain, von Frey test; format: in vivo, mouse; details: i.v., 10 mg/ml as printed; days 1, 3, 5 after CFA

## CCCn1c(=O)c2[nH]c(C3CCCC3)nc2n(CCC)c1=O [DPCPX]
[1]
  reversal of JH-ENT-01 analgesia: reversal
A1R
  effect on analgesic action of JH-ENT-01 (PWT): prevented
[2]
  sEPSC frequency and amplitude: no effects on sEPSC frequency and amplitude

## COc1cc(C(=O)OCCCN2CCCN(CCCOC(=O)c3cc(OC)c(OC)c(OC)c3)CC2)cc(OC)c1OC [dilazep]
[3]; i.v. 30 mg/kg, 3 injections
  death / survival of mice: 7 out of 16
[3]; s.c. 3 x 30 mg/kg
  survival of mice: all mice survived
[4]; i.t. 10 nmol
  paw withdrawal threshold (PWT): failed to elicit an increase in PWT
[4]; i.v. 30 mg/kg on days 8, 10, 12 after STZ
  paw withdrawal threshold (PWT): did not observe any analgesic effect
[4]; s.c. 3 x 30 mg/kg
  neuropathic pain in the STZ model: no effects
[5]
  formalin-induced 2nd phase pain: significant inhibition of phase 2 pain only when data from both sexes were combined
[5]; both sexes
  formalin-induced phase 1 pain: not affected
Mice [6]
  motor function in rotarod test: no significant changes in the falling latency
[7]
  Cmax: 409 ng/mL
Mice [8]; i.p. 10 mg/kg and 30 mg/kg
  effect on heart rates: no significant decrease
Mice [8]; i.v. 30 mg/kg, first hour
  effect on heart rates: significant decrease
G154S hENT1
  preferential inhibition of wild type hENT1 over G154S: did not show any preference
[9]
  paw withdrawal frequency (PWF): no effects
  paw withdrawal threshold (PWT): no effects
